Results taken from publication PMC7822874, “Chemoprotective antimalarials identified through quantitative high-throughput screening of Plasmodium blood and liver stage parasites” (Scientific Reports, 2021).

System: Plasmodium falciparum Dd2 asexual blood stage parasites
Assay: microbe, parasite or virus in culture
Set-up: species or system Plasmodium falciparum Dd2 in human erythrocytes; single determination (one 11-point concentration-response curve)
Settings: Plasmodium falciparum, DD2, Erythrocyte, 72 h; read-out: AC50

COc1cc(O)c(C(CCN2CCOCC2)c2ccc3c(c2)OCO3)c(OC)c1 (centres unmarked) [MLS000879477-01]
AC50: 4.22 µM

COc1cc(O)c(C(CCN2CCCC(C)C2)c2ccc3c(c2)OCO3)c(OC)c1 (centres unmarked) [MLS000879506-01]
AC50: 0.531 µM

CCN(CC)CCC(c1ccc(N(C)C)cc1)c1c(O)cc(OC)cc1OC (centres unmarked) [MLS000879508-01]
AC50: 3.35 µM

CN(C)CCCNc1ccc(-c2cc(Nc3cccc(Cl)c3)ncn2)cn1 [MLS000911553-01]
AC50: 9.44 µM

CCN1CCN(Cc2ccc(NC(=O)c3cc(NC(=O)c4cc(-c5ccc(OC)cc5)n[nH]4)cc(OC)c3)cc2C(F)(F)F)CC1 [MLS000911571-01]
AC50: 0.168 µM

CCN1CCN(Cc2ccc(NC(=O)c3cc(NC(=O)C4=NN(c5ccccc5)C(=O)C4)cc(OC)c3)cc2C(F)(F)F)CC1 [MLS000911574-01]
AC50: 8.41 µM

CCN1CCN(Cc2ccc(NC(=O)c3cc(NC(=O)c4cncc(-c5ccc(C#N)cc5)c4)cc(OC)c3)cc2C(F)(F)F)CC1 [MLS000911575-01]
AC50: 0.596 µM

COc1ccc2nc3oc(C(=O)N4CC(C)CC(C)C4)cc3cc2c1 (centres unmarked) [MLS000912759-01]
AC50: 8.41 µM

COc1ccccc1-c1cc(C(=O)N2CCN(S(=O)(=O)c3ccc(C)cc3)CC2)[nH]n1 [MLS000924750-01]
AC50: 7.5 µM

CC(=O)N1CCc2cc(Br)cc(S(=O)(=O)N3CCCCC3)c21 [MLS000936219-01]
AC50: 5.96 µM

COc1ccc(-n2nc(C(=O)NCC(=O)N3CCN(c4ccccc4OC)CC3)c3ccccc3c2=O)cc1OC [MLS000936245-01]
AC50: 6.68 µM

Cc1cc([N+](=O)[O-])ccc1NC(=O)COc1nsnc1N1CCOCC1 [MLS000950344-01]
AC50: 6.68 µM

CC(C)N1CCN(Cc2ccc(-c3ccccc3)cc2)CC1CCO (centres unmarked) [MLS001000401-01]
AC50: 6.68 µM

Cc1c(CN2CCN(CC(C)(C)C)C(CCO)C2)[nH]c2ccccc12 (centres unmarked) [MLS001000590-01]
AC50: 9.44 µM

C/C=C/c1cc(CN2CCN(c3ccccc3)CC2)c(O)c(OC)c1 [MLS001002110-01]
AC50: 5.96 µM

Cc1ccc(S(=O)(=O)N2CCN(/C(S)=N/Cc3ccc4c(c3)OCO4)CC2)cc1 [MLS001002637-01]
AC50: 2.37 µM

COc1ccc(O)c(C(=O)c2cnc3c(c2)c(-c2ccc(F)cc2)c(C#N)c(=O)n3C)c1 [MLS001003111-01]
AC50: 5.96 µM

COc1cc(C(=O)OCC(=O)N2CCCCC2C)cc(NC(=O)c2cccs2)c1OC (centres unmarked) [MLS001003405-01]
AC50: 0.473 µM

CCOc1ccc(C(C)NC(S)=NC2CCCCC2)cc1OCC (centres unmarked) [MLS001007596-01]
AC50: 0.211 µM

O=C(CNC1CC1)Nc1cc(C(F)(F)F)ccc1Cl [MLS001010951-01]
AC50: 15 µM

C[n+]1c(-c2ccccc2)cc(-c2ccc(Cl)cc2)cc1-c1ccccc1.[O-][Cl+3]([O-])([O-])O [MLS001018624-01]
AC50: 6.68 µM

CCOC(=O)N1CCN(C(=O)c2ccc3c(c2)N(C)C(=O)/C(=C\c2ccc(OCC)c(OC)c2)S3)CC1 [MLS001030648-01]
AC50: 6.68 µM

CCc1cc(C(=O)OC)c(NC(=O)CN2CCN(C(=O)c3ccco3)CC2)s1 [MLS001034503-01]
AC50: 5.96 µM

COc1ccc(S(=O)(=O)N2CCN(/C(S)=N/CC3CCCO3)CC2)cc1OC (centres unmarked) [MLS001035648-01]
AC50: 6.68 µM

O=S(=O)(c1ccc(F)cc1)N1CCN(/C(S)=N/CCc2ccccc2)CC1 [MLS001035761-01]
AC50: 5.96 µM

CCCCCCCn1c(NC(=O)CC)nc2ccccc21 [MLS001042192-01]
AC50: 16.8 µM

COc1ccc(OC)c(S(=O)(=O)Nc2ccc(O)c3ccccc23)c1 [MLS001045548-01]
AC50: 8.41 µM

CCc1cccc(C)c1NC(=O)CN1CCN(S(=O)(=O)c2ccc(C(C)(C)C)cc2)CC1 [MLS001070982-01]
AC50: 8.41 µM

Cc1ccc(CNC(=O)c2ccc(N3CCC4(CC3)CC(c3cccc(Br)c3)=NO4)c(NC(=O)c3ccco3)c2)cc1 [MLS001074407-01]
AC50: 8.41 µM

CC(C)C[C@@]12C(=O)N(c3cccc(Br)c3)C(=O)N1[C@H](c1ccc(F)cc1)[C@@H]1C(=O)N(C3CCCCC3)C(=O)[C@@H]12 [MLS001074979-01]
AC50: 7.5 µM

CCC(Oc1ccccc1)C(=O)Nc1cc(C(F)(F)F)ccc1N1CCOCC1 (centres unmarked) [MLS001099270-01]
AC50: 7.5 µM

Cc1ncc(CN2CCC(C(=O)Nc3ccc(-n4cccn4)cc3)CC2)s1 [MLS001101085-01]
AC50: 4.73 µM

CCC(C)N(CCNC(=O)c1ccc2c(c1)NC(=O)c1ccccc1S2)C1CCCCC1 (centres unmarked) [MLS001110969-01]
AC50: 13.3 µM

Cc1onc(-c2ccc(Cl)cc2)c1-c1ccnn1S(=O)(=O)c1cccc(C(F)(F)F)c1 [MLS001111123-01]
AC50: 4.73 µM

COc1ccc(CNC(=O)C2CCN(c3nc(-c4ccccc4)nc4c3CCC4)CC2)cc1 [MLS001120192-01]
AC50: 7.5 µM

COc1cccc(-c2cc(C(=O)Nc3ccncc3)c3ccccc3n2)c1 [MLS001125696-01]
AC50: 6.68 µM

CC(C)c1ccc(C2c3[nH]c4ccccc4c3C[C@H]3C(=O)N(c4ccccc4C(=O)N4CCC(C(=O)O)CC4)C(=O)N23)cc1 (some centres unmarked) [MLS001140664-01]
AC50: 6.68 µM

O=C(NCC1CCCCC1)c1cc2ccccc2cc1O [MLS001141978-01]
AC50: 9.44 µM

COc1cccc(NC(=O)CN(C)C(=O)c2oc3c(ccc4ccccc43)c2C)c1 [MLS001142056-01]
AC50: 0.75 µM

Nc1nonc1-n1nnc(C(=O)N/N=C/c2ccc(F)cc2)c1-c1ccc2c(c1)OCO2 [MLS001142639-01]
AC50: 0.335 µM

Cc1ccc(/C=N/NC(=O)c2nnn(-c3nonc3N)c2-c2ccc3c(c2)OCO3)s1 [MLS001142659-01]
AC50: 0.841 µM

Nc1nonc1-n1nnc(C(=O)N/N=C/c2ccc(Cl)cc2)c1-c1ccc2c(c1)OCO2 [MLS001142698-01]
AC50: 0.376 µM

CCOc1cc(C(=O)N2CCC(CC3CC(c4ccc(Cl)cc4)=NO3)(C(=O)NCC3CCCCC3)CC2)cc(OCC)c1OCC (centres unmarked) [MLS001143937-01]
AC50: 0.841 µM

CCCCCCCNC(=O)C1(CC2CC(c3cccc(Br)c3)=NO2)CCN(C(=O)c2cc(OCC)c(OCC)c(OCC)c2)CC1 (centres unmarked) [MLS001144006-01]
AC50: 10.6 µM

COc1ccc(CCn2c(=N)c(C(=O)NCCN3CCOCC3)cc3c(=O)n4cccc(C)c4nc32)cc1OC [MLS001146185-01]
AC50: 13.3 µM

Cc1cccc(-c2cc(C(=O)Nc3ccncc3)c3ccccc3n2)c1 [MLS001147429-01]
AC50: 8.41 µM

O=S(=O)(c1ccc(F)cc1)N1CCN(/C(S)=N/CC2CCCO2)CC1 (centres unmarked) [MLS001148319-01]
AC50: 6.68 µM

CCN(CC)S(=O)(=O)c1ccc(N2CCCCC2)c(NC(=O)C2=COCCO2)c1 [MLS001150729-01]
AC50: 6.68 µM

CCCCn1c(N)c(N(CC(C)C)C(=O)c2cc(-c3ccc(OC)c(OC)c3)nc3ccccc23)c(=O)[nH]c1=O [MLS001157051-01]
AC50: 11.9 µM

CC(Oc1ccc(F)cc1)C(=O)Nc1cc(Cl)ccc1-n1cncn1 (centres unmarked) [MLS001157608-01]
AC50: 6.68 µM

CCc1cc(=O)oc2cc(C)cc(OCC(=O)NCC(O)c3ccccc3)c12 (centres unmarked) [MLS001158251-01]
AC50: 6.68 µM

Cc1cc(OC(C)C(=O)NCCc2c[nH]c3ccccc23)c2c(C)cc(=O)oc2c1 (centres unmarked) [MLS001158613-01]
AC50: 2.66 µM

O=C(Nc1ccncc1)c1cc(-c2cccc(Br)c2)nc2ccccc12 [MLS001159350-01]
AC50: 13.3 µM

CCCCc1cc(=O)oc2cc(C)cc(OCC(=O)Nc3cccnc3)c12 [MLS001160046-01]
AC50: 0.596 µM

CC(Oc1ccc(F)cc1)C(=O)Nc1cc(C(F)(F)F)ccc1-n1cncn1 (centres unmarked) [MLS001160637-01]
AC50: 1.68 µM

COc1ccc(-c2csc3ncnc(N4CCN(S(=O)(=O)c5ccc(C(C)=O)cc5)CC4)c23)cc1 [MLS001160708-01]
AC50: 4.22 µM
